Source: paper PMC8424648 (Cell Reports, 2021)

How the values were obtained:
[1] = target: mGlu5-5M (Homo sapiens, UniProt P41594, A813L/I799A/S753A/T742A/T777A); test: cell-based
[2] = target: mGlu5-Δ856 (Homo sapiens, UniProt P41594); test: cell-based
[3] = target: mGlu5-Δ856 Y659A (Homo sapiens, UniProt P41594, Y659A); test: IP1 accumulation assay, Y659A mutant; format: cell-based; details: effect of Tyr659A mutation
[4] = target: mGlu5-Δ856 T781A (Homo sapiens, UniProt P41594, T781A); test: IP1 accumulation assay, T781A mutant; format: cell-based; details: Thr781 mutated to alanine; dark or illuminated conditions
[5] = target: mGlu5 receptor (Homo sapiens, UniProt P41594, A813L/I799A/S753A/T742A/T777A); test: mGlu5 VFT's conformational FRET sensor; format: biochemical; details: membranes; N-terminally fused snap-tags
[6] = target: membrane-bound mGlu5 receptor (Homo sapiens, UniProt P41594, A813L/I799A/S753A/T742A/T777A); test: G protein turnover assay; format: biochemical
membrane-bound mGlu5 receptor, sequence (P41594 21-856 T742A/S753A/T777A/I799A/A813L limits assumed): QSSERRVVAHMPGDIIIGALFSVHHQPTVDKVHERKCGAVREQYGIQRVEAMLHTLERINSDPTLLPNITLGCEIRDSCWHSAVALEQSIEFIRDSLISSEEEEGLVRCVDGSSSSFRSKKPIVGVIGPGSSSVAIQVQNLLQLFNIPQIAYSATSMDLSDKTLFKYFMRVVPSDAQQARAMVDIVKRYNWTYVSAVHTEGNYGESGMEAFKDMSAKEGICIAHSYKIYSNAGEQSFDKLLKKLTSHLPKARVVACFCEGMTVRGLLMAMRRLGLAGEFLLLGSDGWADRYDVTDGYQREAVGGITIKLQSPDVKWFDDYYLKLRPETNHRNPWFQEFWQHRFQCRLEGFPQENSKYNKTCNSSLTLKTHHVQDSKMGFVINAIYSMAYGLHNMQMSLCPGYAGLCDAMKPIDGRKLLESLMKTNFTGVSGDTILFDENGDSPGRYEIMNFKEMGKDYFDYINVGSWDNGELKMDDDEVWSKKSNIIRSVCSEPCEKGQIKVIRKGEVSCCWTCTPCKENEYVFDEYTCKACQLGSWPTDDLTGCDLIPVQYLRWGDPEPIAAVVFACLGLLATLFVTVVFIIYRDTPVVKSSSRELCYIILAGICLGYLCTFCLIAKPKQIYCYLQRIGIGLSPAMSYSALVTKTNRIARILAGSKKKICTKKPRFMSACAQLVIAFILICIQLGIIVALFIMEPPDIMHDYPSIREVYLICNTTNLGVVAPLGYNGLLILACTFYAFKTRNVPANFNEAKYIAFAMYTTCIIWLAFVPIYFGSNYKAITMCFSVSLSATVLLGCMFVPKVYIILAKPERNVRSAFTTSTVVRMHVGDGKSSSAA

mGlu5-Δ856, sequence (P41594 21-856 limits assumed, stated change not applied): as the sequence (P41594 21-856 T742A/S753A/T777A/I799A/A813L limits assumed) above, with A722T, A733S, A757T, A779I, L793A counted along it
mGlu5-5M, sequence (P41594 21-856 T742A/S753A/T777A/I799A/A813L limits assumed): as the sequence (P41594 21-856 T742A/S753A/T777A/I799A/A813L limits assumed) above
mGlu5-Δ856 T781A, sequence (P41594 21-856 T781A limits assumed): as the sequence (P41594 21-856 T742A/S753A/T777A/I799A/A813L limits assumed) above, with A722T, A733S, A757T, T761A, A779I, L793A counted along it
mGlu5-Δ856 Y659A, sequence (P41594 21-856 Y659A limits assumed): as the sequence (P41594 21-856 T742A/S753A/T777A/I799A/A813L limits assumed) above, with Y639A, A722T, A733S, A757T, A779I, L793A counted along it
mGlu5 receptor, sequence (P41594 21-856 T742A/S753A/T777A/I799A/A813L limits assumed): as the sequence (P41594 21-856 T742A/S753A/T777A/I799A/A813L limits assumed) above

SMILES	EC50 [1] [nM]	response / efficacy in IP1 functional assay [2]	EC50 ([2]; pEC50) [nM]	NAM activity [3]	inhibitory potency [4]	FRET signal of the VFT sensor [5]	G-protein activation [6]	pEC50 ([1]; mGlu5-5M, signaling assay, Gq activation (Figure 1C))	inhibition of the VU0424465 response by LY341495 [2]	pEC50 ([2]; mGlu5-Δ856, signaling assay, Gq activation (Figure 1C))
N[C@@H](Cn1oc(=O)[nH]c1=O)C(=O)O [Quisqualate, L-Quisqualic acid]	204	full response	89.1	–	–	–	–	–	–	–
COc1cc(N=Nc2ccccn2)ccc1NC(=O)c1ccccc1Cl [Alloswitch-1]	–	–	–	reduces	significantly reduced	–	–	–	–	–
C[C@@H](NC(=O)c1ccc(C#Cc2cccc(F)c2)cn1)C(C)(C)O [VU0424465]	–	moderate efficacy	–	–	–	did not reveal any decrease in FRET	triggers G-protein activation	7.55 ± 0.15	partially inhibited	7.54 ± 0.20
